# Experimental data taken from US20180207114A1, “ESTROGEN RELATED RECEPTOR GAMMA (ERRgamma) ENHANCES AND MAINTAINS BROWN FAT THERMOGENIC CAPACITY” (Salk Institute for Biological Studies, priority 2015, published 2018).
# Tests used:
# [1] = tested on: control flox/flox (WT) and ERRγ ASKO (KO) mice; test: Oxygen consumption (VO2, CLAMS) after intraperitoneal injection of beta adrenergic agonist in mice; format: in vivo, mouse
# Procedure: ERRγ flox/flox mice were crossed with adiponectin-Cre mice (Jackson Laboratory) to generate ERRγ-ASKO mice. ERRγ-ASKO mice and flox/flox control littermates received a standard chow diet (MI laboratory rodent diet 5001, Harlan Teklad) or high fat (60%) diet (F3282, Bio-Serv) and water ad libitum. All mice used for studies were male unless otherwise noted. Mice were housed at thermoneutrality (30° C.) unless otherwise indicated. PPARα null mice were purchased from Jackson laboratory.
# Oxygen consumption (VO2) was measured using the Comprehensive Laboratory Animal Monitoring System (CLAMS; Columbus, Ohio). Data were normalized to body weights. Body temperatures were assessed using a RET-3 rectal probe for mice (Physitemp). CL316243 (Sigma) and norepinephrine were intraperitoneally injected into mice at 1 mg/kg body weight.
# [2] = target: T1, ERRβ (Homo sapiens, UniProt O95718); conditions: for example in the presence of PGC-1a; cited from earlier work
# T1 sequence (O95718 1-433): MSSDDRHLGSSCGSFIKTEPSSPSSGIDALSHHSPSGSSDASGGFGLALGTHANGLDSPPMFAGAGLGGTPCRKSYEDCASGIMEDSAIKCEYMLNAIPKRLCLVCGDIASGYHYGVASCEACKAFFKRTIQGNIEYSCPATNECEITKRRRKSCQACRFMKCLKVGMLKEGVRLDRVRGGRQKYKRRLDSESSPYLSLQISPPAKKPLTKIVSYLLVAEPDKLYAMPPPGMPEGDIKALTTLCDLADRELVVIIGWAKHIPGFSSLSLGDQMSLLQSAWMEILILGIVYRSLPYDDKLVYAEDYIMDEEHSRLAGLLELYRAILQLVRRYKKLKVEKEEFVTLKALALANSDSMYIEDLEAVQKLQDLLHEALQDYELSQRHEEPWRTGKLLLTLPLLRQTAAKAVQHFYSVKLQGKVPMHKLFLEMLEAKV
# [3] = target: T2, ERRα (Homo sapiens, UniProt P11474); conditions: for example in the presence of PGC-1a; cited from earlier work
# T2 sequence (P11474 1-423): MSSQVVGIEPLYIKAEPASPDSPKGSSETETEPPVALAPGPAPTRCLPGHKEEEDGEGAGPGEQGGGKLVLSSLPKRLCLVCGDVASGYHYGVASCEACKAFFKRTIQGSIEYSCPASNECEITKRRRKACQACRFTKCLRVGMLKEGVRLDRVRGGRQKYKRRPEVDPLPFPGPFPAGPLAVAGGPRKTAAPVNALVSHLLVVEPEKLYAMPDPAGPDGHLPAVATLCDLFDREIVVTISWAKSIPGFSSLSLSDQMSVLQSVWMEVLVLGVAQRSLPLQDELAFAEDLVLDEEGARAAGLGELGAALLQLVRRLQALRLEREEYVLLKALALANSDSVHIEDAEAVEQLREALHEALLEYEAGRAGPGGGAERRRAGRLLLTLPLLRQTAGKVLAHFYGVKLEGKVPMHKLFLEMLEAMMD
# [4] = target: T3, ERRγ (Homo sapiens, UniProt P62508); conditions: for example in the presence of PGC-1a; cited from earlier work
# T3 sequence (P62508 1-458): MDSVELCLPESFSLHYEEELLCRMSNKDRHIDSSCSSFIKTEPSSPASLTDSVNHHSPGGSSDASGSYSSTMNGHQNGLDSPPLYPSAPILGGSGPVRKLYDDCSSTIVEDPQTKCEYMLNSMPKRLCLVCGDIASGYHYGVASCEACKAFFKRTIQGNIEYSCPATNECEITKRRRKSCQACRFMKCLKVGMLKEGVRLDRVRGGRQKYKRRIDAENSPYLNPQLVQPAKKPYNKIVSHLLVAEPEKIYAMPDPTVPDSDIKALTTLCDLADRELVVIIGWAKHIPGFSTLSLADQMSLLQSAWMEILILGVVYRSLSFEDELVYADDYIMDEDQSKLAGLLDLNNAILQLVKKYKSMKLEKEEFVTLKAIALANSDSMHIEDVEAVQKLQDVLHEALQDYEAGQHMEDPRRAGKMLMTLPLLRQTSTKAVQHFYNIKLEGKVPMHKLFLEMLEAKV
# [5] = target: T3, ERRγ; conditions: cited from earlier work
# [6] = tested on: differentiated PAZ-6 brown adipocytes; test: Seahorse XF oxygen consumption assay in differentiated PAZ-6 brown adipocytes; format: cell-based, human
# Procedure: PAZ-6 human brown adipocytes were differentiated as previously described (18). Human adipose derived stem cells were cultured as previously described.
# Bioenergetic profiles were analyzed using a XF24XF analyzer (Seahorse Bioscience) and the XF Palmitate-BSA FAO Substrate (Seahorse Bioscience).
compound,measurement,setting,value
C[C@H](Cc1ccc2c(c1)OC(C(=O)[O-])(C(=O)[O-])O2)NC[C@H](O)c1cccc(Cl)c1.[Na+].[Na+] [CL316243],"response (VO2, RER) to injection","[1]; ERRγ-ASKO female mice at thermoneutrality, 1 mg/kg BW intraperitoneal",blunted
Cc1cccc(C=NNC(=O)c2ccc(O)cc2)c1 [DY159],activation of ERRβ,[2],activate
same,activation of ERRα,[3],activate
same,activation of ERRγ,[4],activate
O=C(NN=Cc1ccccc1)c1ccc(O)cc1 [DY162],activation of ERRβ,[2],activate
same,activation of ERRα,[3],activate
same,activation of ERRγ,[4],activate
Cc1ccc(/C=N/NC(=O)c2ccc(O)cc2)cc1 [DY163],activation of ERRβ,[2],activate
same,activation of ERRα,[3],activate
same,activation of ERRγ,[4],activate
CCc1ccc(C=NNC(=O)c2ccc(O)cc2)s1 [DY164],activation of ERRβ,[2],activate
same,activation of ERRα,[3],activate
same,activation of ERRγ,[4],activate
Nc1ccc(C(=O)N/N=C/c2ccc(/N=N/c3ccccc3)cc2)cn1 [E6],selectivity for ERRγ over ERRα and β,[5],selective for ERRγ but not ERRα and β
CC(C)c1ccc(/C=N/NC(=O)c2ccc(O)cc2)cc1 [GSK4716],Increase in oxygen consumption rate in the presence or absence of palmitate,"[6]; differentiated PAZ-6, 10 μM overnight, with vs without palmitate (FIG. 5M)",only occurred in the presence of fatty acids
same,proton leak or uncoupling,[6]; differentiated PAZ-6 treated overnight with 10 μM vs DMSO vehicle,higher
same,Oxygen consumption rate,"[6]; differentiated PAZ-6 treated overnight with 10 μM vs DMSO vehicle, in the presence of fatty acids (palmitate)",higher
"NC[C@H](O)c1ccc(O)c(O)c1 [NE, norepinephrine]",metabolic rate (VO2) response upon injection,"[1]; ERRγ-ASKO mice at thermoneutrality, 1 mg/kg intraperitoneal",severely blunted
same,"metabolic rate (oxygen consumption, VO2) upon injection","[1]; control flox/flox mice at thermoneutrality, 1 mg/kg intraperitoneal",increased
